Data reported in patent publication US20090012144A1 (priority 2000, published 2009).

What was measured:
Heliothis virescens = Heliothis virescens test (soya bean shoots, dip); type: in vivo
Procedure: [table] To prepare a suitable preparation of active compound, 1 part by weight of active compound is mixed with the stated amounts of solvent and emulsifier, and the concentrate is diluted with emulsifier-containing water to the desired concentration. Soya bean shoots (Glycine max) are treated by being dipped into the preparation of active compound of the desired concentration and are populated with Heliothis virescens caterpillars while the leaves are still moist. After the desired period of time, the kill in % is determined. 100% means that all caterpillars have been killed; 0% means that none of the caterpillars have been killed.

[1] = test system: Amblyomma hebraeum nymphs; assay: Amblyomma hebraeum (EH) tick nymphs/dip treatment, determination of the ED50; type: in vivo; conditions: 1 min immersion, ecdysis rate after 4 weeks; not determinable = 50% not reached at 1000 ppm
Procedure: [table] 20 mg of active compound are dissolved in 1 ml of dimethyl sulphoxide. To prepare a suitable preparation, the solution of active compound is diluted with water to the concentration desired in each case. For the determination of the ED50 value, a dose-activity curve with the concentration spectrum 1000, 300, 100, 30, 10, 3, 1, 0.3, 0.1, 0.03, 0.01 ppm is prepared. 10 nymphs which have sucked themselves full are immersed for 1 min into the preparation of active compound to be tested. The animals are transferred to petri dishes (Ø 9.5 cm) fitted with filter paper discs and covered. After the nymphs have remained in a controlled-environment cabinet for 4 weeks, the ecdysis rate is determined. 100% means that none of the animals have undergone normal ecdysis. 0% means that all animals have undergone ecdysis. The data are calculated by a 4-parameter logistic curve fit using XLfit (ID Business Solutions Ltd.). If at 1000 ppm 50% mortality has not been reached, the ED50 is judged to be not determinable.

Spodoptera frugiperda = Spodoptera frugiperda test (cabbage leaves, dip); type: in vivo
Procedure: (§1) [table] To produce a suitable preparation of active compound, 1 part by weight of active compound is mixed with the stated amounts of solvent and emulsifier, and the concentrate is diluted with emulsifier-containing water to the desired concentration. Cabbage leaves (Brassica oleracea) are treated by being dipped into the preparation of active compound of the desired concentration and are populated with caterpillars of the army worm (Spodoptera frugiperda) while the leaves are still moist. After the desired period of time, the kill in % is determined. 100% means that all caterpillars have been killed; 0% means that none of the caterpillars have been killed.

[2] = test system: Amblyomma hebraeum nymphs; assay: Amblyomma hebraeum (EH) polyphargous tick nymphs/dip treatment; type: in vivo; conditions: 10 ppm, 1 min immersion, after 4 weeks; 100% = no normal ecdysis
Procedure: [table] 20 mg of active compound are dissolved in 1 ml of dimethyl sulphoxide. To prepare a suitable formulation, the solution of active compound is diluted with water to the concentration desired in each case. 10 nymphs which have sucked themselves full are immersed for 1 min in the preparation of active compound to be tested. The animals are transferred to petri dishes (Ø 9.5 cm) fitted with filter paper discs and covered. After the nymphs have remained in a controlled-environment cabinet for 4 weeks, the ecdysis rate is determined. 100% means that none of the animals have undergone normal ecdysis. 0% means that all animals have undergone ecdysis.

Tetranychus urticae = assay: Tetranychus test (OP-resistant/dip treatment); type: in vivo
Procedure: [table] To produce a suitable preparation of active compound, 1 part by weight of active compound is mixed with the stated amounts of solvent and emulsifier, and the concentrate is diluted with emulsifier-containing water to the desired concentration. Bean plants (Phaseolus vulgaris) which are heavily infested by all stages of the greenhouse […] spider mite (Tetranychus urticae) are dipped into the preparation of active compound of the desired concentration. After the desired period of time, the efficacy in % is determined. 100% means that all spider mites have been killed; 0% means that none of the spider mites have been killed.

Heliothis armigera = Heliothis armigera test (soya bean shoots, dip); type: in vivo
Procedure: [table] To prepare a suitable preparation of active compound, 1 part by weight of active compound is mixed with the stated amounts of solvent and emulsifier, and the concentrate is diluted with emulsifier-containing water to the desired concentration. Soya bean shoots (Glycine max) are treated by being dipped into the preparation of active compound of the desired concentration and are populated with caterpillars of the cotton bollworm (Heliothis armigera) while the leaves are still moist. After the desired period of time, the kill in % is determined. 100% means that all caterpillars have been killed; 0% means that none of the caterpillars have been killed.

[3] = log P determination by HPLC (reversed-phase C 18), EEC Directive 79/831 Annex V.A8; type: physicochemical; conditions: HPLC, pH 2.3, 43° C.; read-out: log P (pH 2.3)
Procedure: The log P values given in the tables and Preparation Examples above are determined in accordance with EEC Directive 79/831 Annex V.A8 by HPLC (High Performance Liquid Chromatography) using a reversed-phase column (C 18). Temperature: 43° C. […]
Calibration was carried out using unbranched alkan-2-ones (having 3 to 16 carbon atoms) with known log P values (determination of the log P values by the retention times using linear interpolation between two successive […]).

Spodoptera exigua = Spodoptera exigua test (cabbage leaves, dip); type: in vivo; conditions: 1.6 ppm
Procedure: as §1, with “exigua)” for “frugiperda)”

With `O=S(=O)(c1ccc(-c2ccc([C@H]3CCC(c4c(F)cccc4F)=N3)cc2)cc1)C(F)F` [I-14] the melting point was 148 to 150 °C.
With `Fc1cccc(F)c1C1=N[C@@H](c2ccc(-c3ccc(SC(F)(F)F)cc3)cc2)CC1` [drawing 66] the “Kill rate in % after 6 d” value (Heliothis virescens; 1.6 ppm) was 100%.
In the case of `Fc1cccc(F)c1C1=NC(c2ccc(-c3ccc(OC(F)(F)F)cc3)cc2)CC1` (stereo not shown) [drawing 112], the “ED 50 (ppm)” value [1] is reported as 0.58 ppm.
In the case of `Fc1cccc(F)c1C1=NC(c2ccc(-c3ccc(SC(F)(F)F)cc3)cc2)CC1` (stereo not shown) [drawing 91], the “Kill rate in % after 6 d” value (Spodoptera frugiperda; 0.0128 ppm) is reported as 20%.
For `Fc1cccc(F)c1C1=N[C@@H](c2ccc(-c3ccc(SC(F)(F)F)cc3)cc2)CC1` [drawing 92], the “Kill rate in % after 6 d” value (Spodoptera frugiperda; 0.0128 ppm) was 65%.
For `Fc1cccc(F)c1C1=N[C@@H](c2ccc(-c3ccc(OC(F)(F)F)cc3)cc2)CC1` [drawing 64], the “Kill rate in % after 6 d” value (Heliothis virescens; 0.32 ppm) was 90%.
In the case of `Fc1cccc(F)c1C1=NC(c2ccc(-c3ccc(OC(F)(F)F)cc3)cc2)CC1` (stereo not shown) [drawing 106], the “Effects on ecdysis in %” value [2] is reported as 100%.
With `Fc1cccc(F)c1C1=N[C@H](c2ccc(-c3ccc(OC(F)(F)F)cc3)cc2)CC1` [drawing 90] the “Kill rate in % after 6 d” value (Spodoptera frugiperda; 8 ppm) was 0%.
In the case of `CCOc1cc(C(C)(C)C)ccc1[C@H]1CCC(c2c(F)cccc2F)=N1` [drawing 110], the “ED 50 (ppm)” value [1] is reported as 0.14 ppm.
For `Fc1cccc(F)c1C1=NC(c2ccc(-c3ccc(OC(F)(F)F)cc3)cc2)CC1` (stereo not shown) [drawing 63], the “Kill rate in % after 6 d” value (Heliothis virescens; 0.32 ppm) was 20%.
In the case of `CCOc1cc(C(C)(C)C)ccc1[C@@H]1CCC(c2c(F)cccc2F)=N1` [drawing 111], the “ED 50 (ppm)” value [1] is reported as “notdeterminable”.
With `Fc1cccc(F)c1C1=N[C@@H](c2ccc(-c3ccc(OC(F)(F)F)cc3)cc2)CC1` [drawing 100] the “Kill rate in % after 7 d” value (Tetranychus urticae; 0.0128 ppm) was 95%.
With `CCOc1cc(C(C)(C)C)ccc1[C@@H]1CCC(c2c(F)cccc2F)=N1` [drawing 105] the “Effects on ecdysis in %” value [2] was 0%.
In the case of `FC(F)=C(F)Oc1ccc(-c2ccc([C@H]3CCC(c4c(F)cccc4F)=N3)cc2)cc1`, the “Kill rate in % after 7 d” value (Tetranychus urticae; 0.01 ppm) is reported as 98%.
For `CCOc1cc(C(C)(C)C)ccc1[C@H]1CCC(c2c(F)cccc2F)=N1` [drawing 98], the “Kill rate in % after 7 d” value (Tetranychus urticae; 0.32 ppm) was 90%.
For `CCOc1cc(C(C)(C)C)ccc1[C@H]1CCC(c2c(F)cccc2F)=N1` [drawing 104], the “Effects on ecdysis in %” value [2] was 100%.
For `Fc1cccc(F)c1C1=N[C@H](c2ccc(-c3ccc(OC(F)(F)F)cc3)cc2)CC1` [drawing 114], the “ED 50 (ppm)” value [1] was 549.86 ppm.
Work on `[O-][S+](c1ccc(-c2ccc([C@H]3CCC(c4c(F)cccc4F)=N3)cc2)cc1)C(F)(F)F` (stereo partly shown) [I-10] yielded a melting point of 146 to 148 °C.
In the case of `OC1([C@H]2CCC(c3c(F)cccc3F)=N2)C=CC(c2ccccc2)=CC1` (stereo partly drawn) [I-9, 4′-[(2R)-5-(2,6-difluorophenyl)-3,4-dihydro-2H-pyrrol-2-yl]-1,1′-biphenyl-4′-ol], the melting point is reported as 217 °C.
With `Fc1cccc(F)c1C1=N[C@H](c2ccc(-c3ccc(SC(F)(F)F)cc3)cc2)CC1` [drawing 62, reference compound] the “Kill rate in % after 6 d” value (Heliothis armigera; 1.6 ppm) was 0%.
`CC(C)(C)[Si](C)(C)Oc1ccc(-c2ccc([C@H]3CCC(c4c(F)cccc4F)=N3)cc2)cc1` [I-8, (2R)-2-(4′-{[tert-butyl(dimethyl)silyl]oxy}-1,1′-biphenyl-4-yl)-5-(2,6-difluorophenyl)-3,4-dihydro-2H-pyrrole] showed a chromatographic logP [3] of 6.2 and a melting point of 33 °C.
With `Fc1cccc(F)c1C1=N[C@H](c2ccc(-c3ccc(SC(F)(F)F)cc3)cc2)CC1` [drawing 67] the “Kill rate in % after 6 d” value (Heliothis virescens; 1.6 ppm) was 15%.
With `CCOc1cc(C(C)(C)C)ccc1C1CCC(c2c(F)cccc2F)=N1` (stereo not shown) [drawing 109] the “ED 50 (ppm)” value [1] was 0.27 ppm.
In the case of `Fc1cccc(F)c1C1=N[C@H](c2ccc(-c3ccc(OC(F)(F)F)cc3)cc2)CC1` [drawing 101, reference compound], the “Kill rate in % after 7 d” value (Tetranychus urticae; 0.0128 ppm) is reported as 0%.
With `Fc1cccc(F)c1C1=N[C@@H](c2ccc(-c3ccc(SC(F)(F)F)cc3)cc2)CC1` [drawing 61] the “Kill rate in % after 6 d” value (Heliothis armigera; 1.6 ppm) was 100%.
In the case of `Fc1cccc(F)c1C1=NC(c2ccc(-c3ccc(OC(F)(F)F)cc3)cc2)CC1` (stereo not shown) [drawing 88], the “Kill rate in % after 6 d” value (Spodoptera frugiperda; 0.02 ppm) is reported as 25%.
In the case of `CCOc1cc(C(C)(C)C)ccc1[C@@H]1CCC(c2c(F)cccc2F)=N1` [drawing 99, reference compound], the “Kill rate in % after 7 d” value (Tetranychus urticae; 8 ppm) is reported as 0%.
In the case of `Fc1cccc(F)c1C1=N[C@@H](c2ccc(-c3ccc(SC(F)(F)F)cc3)cc2)CC1` [drawing 83], the “Kill rate in % after 6 d” value (Spodoptera exigua) is reported as 100%.
With `Fc1cccc(F)c1C1=N[C@H](c2ccc(-c3ccc(OC(F)(F)F)cc3)cc2)CC1` [drawing 108] the “Effects on ecdysis in %” value [2] was 0%.
With `Fc1cccc(F)c1C1=N[C@@H](c2ccc(-c3ccc(OC(F)(F)F)cc3)cc2)CC1` [drawing 107] the “Effects on ecdysis in %” value [2] was 100%.
In the case of `CCOc1cc(C(C)(C)C)ccc1C1CCC(c2c(F)cccc2F)=N1` (stereo not shown) [drawing 103], the “Effects on ecdysis in %” value [2] is reported as 100%.
For `Fc1cccc(F)c1C1=N[C@H](c2ccc(-c3ccc(OC(F)(F)C(F)F)cc3)cc2)CC1`, the “Kill rate in % after 6 d” value (Spodoptera exigua) was 0%.
In the case of `Fc1cccc(F)c1C1=N[C@@H](c2ccc(-c3ccc(OC(F)(F)F)cc3)cc2)CC1` [drawing 89], the “Kill rate in % after 6 d” value (Spodoptera frugiperda; 0.02 ppm) is reported as 100%.
For `Fc1cccc(F)c1C1=N[C@H](c2ccc(-c3ccc(OC(F)(F)F)cc3)cc2)CC1` [drawing 65], the “Kill rate in % after 6 d” value (Heliothis virescens; 8 ppm) was 0%.
In the case of `Fc1cccc(F)c1C1=N[C@@H](c2ccc(-c3ccc(OC(F)(F)F)cc3)cc2)CC1` [drawing 113], the “ED 50 (ppm)” value [1] is reported as 0.20 ppm.
For `CCOc1cc(C(C)(C)C)ccc1C1CCC(c2c(F)cccc2F)=N1` (stereo not shown) [drawing 97, reference compound], the “Kill rate in % after 7 d” value (Tetranychus urticae; 0.32 ppm) was 0%.
For `Fc1cccc(F)c1C1=N[C@H](c2ccc(-c3ccc(SC(F)(F)F)cc3)cc2)CC1` [drawing 93], the “Kill rate in % after 6 d” value (Spodoptera frugiperda; 1.6 ppm) was 10%.
With `Fc1cccc(F)c1C1=N[C@H](c2ccc(-c3ccc(OC(F)(F)F)cc3)cc2)CC1` [drawing 60, reference compound] the “Kill rate in % after 6 d” value (Heliothis armigera; 8 ppm) was 0%.
For `Fc1cccc(F)c1C1=N[C@@H](c2ccc(-c3ccc(OC(F)(F)F)cc3)cc2)CC1` [drawing 59], the “Kill rate in % after 6 d” value (Heliothis armigera; 8 ppm) was 100%.
